{
  "source": "patent US4430341A",
  "about": "“Water soluble pesticidal quaternary ammonium salt compounds” (Union Carbide Corporation, priority 1977, dated 1984)",
  "key": {"[1]": {"tested_on": "Mexican bean beetle (Epilachna varivestis, Muls.)", "assay": "Mexican Bean Beetle Leaf Spray Test", "format": "in vivo", "set-up": "key: A: Excellent control; B: Partial control; C: No control", "settings": "500 parts per million; three days", "method": "(§1) The compound of EXAMPLE IV was evaluated to determine its pesticidal activity against mites and certain insects, including an aphid, a caterpillar, a beetle and a fly.\n(§2) Suspensions of the test compound was prepared by dissolving one gram of compound in 50 milliliters of acetone in which had been dissolved 0.1 gram (10 percent of the weight of compound) of an alkylphenoxy polyethoxyethanol surfactant, as an emulsifying or dispersing agent. The resulting solution was mixed into 150 milliliters of water to give roughly 200 of milliliters of a suspension containing the compound in finely divided form. The thus-prepared stock suspension contained 0.5 percent by weight of test compound. The test concentrations in parts per million by weight employed in the tests described hereinbelow were obtained by appropriate dilutions of the stock suspension with water. The test procedures were as follows.\nFourth instar larvae of the Mexican bean beetle (Epilachna varivestis, Muls.) reared on Tendergreen bean plants at a temperature of 80±5° and 50±5 percent relative humidity, were the test insects.\nThe test compound was formulated by diluting the stock suspension with water to give a suspension containing 500 parts of test compound per million parts of final formulation. […]"}, "[2]": {"assay": "Water solubility", "format": "physicochemical", "settings": "25° C."}, "[3]": {"tested_on": "southern armyworm (Prodenia Eridania, (Cram.))", "assay": "Southern Armyworm Leaf Spray Test", "format": "in vivo", "set-up": "key: A: Excellent control; B: Partial control; C: No control", "settings": "500 parts per million; three days", "method": "as §1, §2\nLarvae of the southern armyworm (Prodenia Eridania, (Cram.), reared on Tendergreen bean plants at a temperature of 80±5° F. and relative humidity of 50±5 percent, constituted the test insects. […]\nThis application which lasted 25 seconds was sufficient to wet plants to run-off. […] Percent mortality was recorded for various concentration levels. […]"}, "[4]": {"tested_on": "two-spotted mite (Tetranychus urticae Koch)", "assay": "Mite Foliage Spray Test", "format": "in vivo", "set-up": "key: A: Excellent control; B: Partial control; C: No control", "settings": "500 parts per million; six days", "method": "as §1, §2\nAdults and nymphal stages of the two-spotted mite (Tetranychus urticae Koch), reared on Tendergreen bean plants at 80±5 percent relative humidity, were the test organisms. Infested leaves from a stock culture were placed on the primary leaves of two bean plants six to eight inches in height, growing in a two- and-a-half inch clay pot. 150-200 mites, a sufficient number for testing, transferred from the excised leaves to the fresh plants in a period of twenty-four hours. […]"}, "[5]": {"tested_on": "Bean", "assay": "Phytotoxicity test, Bean", "format": "in vivo", "set-up": "key: 1: no perceptible injury; 2: intermediate degrees of injury based upon the number and extent to which leaves were injured; 3: intermediate degrees of injury based upon the number and extent to which leaves were injured; 4: intermediate degrees of injury based upon the number and extent to which leaves were injured; 5: the plant was dead", "settings": "2500 parts per million; ten days", "method": "(§3) Experiments were also conducted to determine the phytotoxicity of a representative composition with respect to healthy fresh plants. A solution of the compound prepared as described above to provide a concentration of 2500 parts per million of the test compound. The test plants were sprayed in accordance with the procedure described above for the Mite Foliage Spray Test so as to deliver approximately 100 milliliters of test solution to the leaves of each plant tested. The sprayed plants and controls were set aside for approximately one hour to allow the solutions to dry and were then placed in the greenhouse. After ten days the plants were visually inspected to determine the extent of foliage injury. A rating of 1 indicates no perceptible injury; 5 indicates the plant was dead and ratings of 2, 3 and 4 indicate intermediate degrees of injury based upon the number and extent to which leaves were injured."}, "[6]": {"tested_on": "Soybean", "assay": "Phytotoxicity test, Soybean", "format": "in vivo", "set-up": "key: 1: no perceptible injury; 2: intermediate degrees of injury based upon the number and extent to which leaves were injured; 3: intermediate degrees of injury based upon the number and extent to which leaves were injured; 4: intermediate degrees of injury based upon the number and extent to which leaves were injured; 5: the plant was dead", "settings": "2500 parts per million; ten days", "method": "as §3"}, "[7]": {"tested_on": "Cot.", "assay": "Phytotoxicity test, Cot. (second column)", "format": "in vivo", "set-up": "key: 1: no perceptible injury; 2: intermediate degrees of injury based upon the number and extent to which leaves were injured; 3: intermediate degrees of injury based upon the number and extent to which leaves were injured; 4: intermediate degrees of injury based upon the number and extent to which leaves were injured; 5: the plant was dead", "settings": "2500 parts per million; ten days", "method": "as §3"}, "[8]": {"tested_on": "bean aphid (Aphis fabae Scop.)", "assay": "Bean Aphid Foliage Spray Test", "format": "in vivo", "set-up": "key: A: Excellent control; B: Partial control; C: No control", "settings": "500 parts per million; 24 hour holding period", "method": "as §1, §2\nAdults and nymphal stages of the bean aphid (Aphis fabae Scop.) reared on potted dwarf nasturtium plants at 65°-70° F. and 50-70 percent relative humidity, constituted the test insects. […]\nThe potted plants (one pot per compound tested) infested with 100-150 aphids, were placed on a revolving turntable and sprayed with 100-110 milliliters of test compound formulation by use of a DeVilbiss spray gun set at 40 psig. air pressure. […] Percent mortality was recorded for various concentration levels. […]"}, "[9]": {"tested_on": "Tom.", "assay": "Phytotoxicity test, Tom.", "format": "in vivo", "set-up": "key: 1: no perceptible injury; 2: intermediate degrees of injury based upon the number and extent to which leaves were injured; 3: intermediate degrees of injury based upon the number and extent to which leaves were injured; 4: intermediate degrees of injury based upon the number and extent to which leaves were injured; 5: the plant was dead", "settings": "2500 parts per million; ten days", "method": "as §3"}, "[10]": {"tested_on": "house flies (Musca domestica, L.)", "assay": "Fly Bait Test", "format": "in vivo", "set-up": "key: A: Excellent control; B: Partial control; C: No control", "settings": "500 parts per million in sugar solution bait; twenty four hours", "method": "as §1, §2\nFour to six day old adult house flies (Musca domestica, L.) reared according to the specifications of the Chemical Specialties Manufacturing Association (Blue Book, McNair-Dorland Co., N.Y., 1954; pages 243-244, 261) under controlled conditions of 80±° F. and 50±5 percent relative humidity, were the test insects. […]"}, "[11]": {"tested_on": "Cot.", "assay": "Phytotoxicity test, Cot. (fourth column)", "format": "in vivo", "set-up": "key: 1: no perceptible injury; 2: intermediate degrees of injury based upon the number and extent to which leaves were injured; 3: intermediate degrees of injury based upon the number and extent to which leaves were injured; 4: intermediate degrees of injury based upon the number and extent to which leaves were injured; 5: the plant was dead", "settings": "2500 parts per million; ten days", "method": "as §3"}},
  "data": [
    {"smiles": "CN(C(=O)C[N+](C)(C)CCOCC[N+](C)(C)CC(=O)N(C)C(=O)Oc1cccc2ccccc12)C(=O)Oc1cccc2ccccc12", "note": "[EXAMPLE IV]", "values": [
      {"measurement": "Insecticidal and Miticidal: Mexican Bean Beetle", "setting": "[1]", "value": "A"},
      {"measurement": "% Water Solubility", "setting": "[2]", "value": 20, "unit": "%"},
      {"measurement": "solubility", "setting": "[2]; water", "value": 200, "unit": "mg/mL"},
      {"measurement": "Insecticidal and Miticidal: So. Army Worm", "setting": "[3]", "value": "A"},
      {"measurement": "Insecticidal and Miticidal: Mite", "setting": "[4]", "value": "C"},
      {"measurement": "Herbicidal: Bean", "setting": "[5]", "value": 2},
      {"measurement": "Herbicidal: Soybean", "setting": "[6]", "value": 2},
      {"measurement": "Herbicidal: Cot.", "setting": "[7]", "value": 1},
      {"measurement": "Insecticidal and Miticidal: Aphid", "setting": "[8]", "value": "B"},
      {"measurement": "Herbicidal: Tom.", "setting": "[9]", "value": 1},
      {"measurement": "Insecticidal and Miticidal: House Fly", "setting": "[10]", "value": "A"},
      {"measurement": "Herbicidal: Cot.", "setting": "[11]", "value": 2}
    ]}
  ]
}
